Measurements as given in patent publication US7482375B2, “Compounds useful in therapy” (Pfizer Inc., priority 2005, dated 2009).
pIC50: −log10 of the molar value.

Tested on: not given
Test: not given
Conditions: not given

Structure (SMILES) | melting point
CNC(=O)Cn1nc(C2CC2)c(Oc2ccc(C#N)cc2)c1C1CC1 [Example 52, 2-[4-(4-Cyanophenoxy)-3,5-dicyclopropyl-1H-pyrazol-1-yl]-N-methylacetamide] | 163 °C
CCc1nn(CCO)c(CC)c1Oc1cc(C)c(C#N)c(C)c1 [Example 27, 4-[3,5-Diethyl-1-(2-hydroxy-ethyl)-1H-pyrazol-4-yloxy]-2,6-dimethyl-benzonitrile] | 97 °C

Now from value to compound:

melting point | Structure (SMILES)
147 to 149 °C | CCOC(=O)Cn1nc(CC)c(Oc2ccc(C#N)cc2)c1CC [Example 35, Ethyl[4-(4-cyanophenoxy)-3,5-diethyl-1H-pyrazol-1-yl]acetate]
156 to 157 °C | CCOC(=O)Cn1nc(C2CC2)c(Oc2cc(C)c(C#N)c(C)c2)c1C1CC1 (hydrate or solvate) [Example 38, Ethyl[4-(4-cyano-3,5-dimethylphenoxy)-3,5-dicyclopropyl-1H-pyrazol-1-yl]acetate]
82 °C | CCc1nn(CCO)c(CC)c1Oc1ccc(C#N)cc1 [Example 21, 4-[3,5-Diethyl-1-(2-hydroxy-ethyl)-1H-pyrazol-4-yloxy]-benzonitrile]
85 °C | CCc1nn(CCO)c(CC)c1Oc1ccc(C#N)c(Cl)c1

Target: T1, Progesterone Receptor (PR) (Homo sapiens, UniProt P06401)
T1 construct: endogenous in cells; host or cells: T47D human breast mammary carcinoma cells
T1 sequence (P06401 1-933): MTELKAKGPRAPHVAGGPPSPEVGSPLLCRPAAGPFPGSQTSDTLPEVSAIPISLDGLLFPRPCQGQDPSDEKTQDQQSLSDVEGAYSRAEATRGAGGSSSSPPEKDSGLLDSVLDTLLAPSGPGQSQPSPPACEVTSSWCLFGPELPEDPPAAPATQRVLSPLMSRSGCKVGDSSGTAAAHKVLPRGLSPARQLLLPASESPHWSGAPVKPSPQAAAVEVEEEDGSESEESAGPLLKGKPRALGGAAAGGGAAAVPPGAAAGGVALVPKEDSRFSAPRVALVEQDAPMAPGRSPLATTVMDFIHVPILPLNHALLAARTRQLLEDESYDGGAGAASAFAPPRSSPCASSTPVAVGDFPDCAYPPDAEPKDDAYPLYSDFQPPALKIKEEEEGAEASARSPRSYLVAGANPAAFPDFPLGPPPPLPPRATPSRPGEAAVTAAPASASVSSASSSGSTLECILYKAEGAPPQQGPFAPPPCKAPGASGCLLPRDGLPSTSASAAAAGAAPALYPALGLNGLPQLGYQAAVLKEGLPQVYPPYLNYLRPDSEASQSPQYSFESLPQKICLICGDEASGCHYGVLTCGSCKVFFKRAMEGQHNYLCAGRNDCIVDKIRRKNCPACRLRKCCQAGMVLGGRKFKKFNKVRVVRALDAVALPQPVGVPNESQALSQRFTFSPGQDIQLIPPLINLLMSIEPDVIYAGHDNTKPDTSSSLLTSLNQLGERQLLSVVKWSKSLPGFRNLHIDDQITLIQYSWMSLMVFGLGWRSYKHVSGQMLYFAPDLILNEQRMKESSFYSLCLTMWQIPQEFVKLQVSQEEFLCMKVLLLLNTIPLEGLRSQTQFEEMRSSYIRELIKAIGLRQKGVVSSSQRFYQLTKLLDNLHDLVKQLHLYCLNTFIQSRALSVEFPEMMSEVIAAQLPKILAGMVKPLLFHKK
Test: In vitro functional assay for progesterone receptor (PR) antagonism: inhibition of progesterone-induced alkaline phosphatase expression in T47D cells
Format: cell-based
Conditions: Screen 1.0, functional progesterone antagonism; antagonist format (5 nM P4), alkaline phosphatase inhibition in T47D human mammary carcinoma cells
Text: 1.0 In vitro Functional Assay for Progesterone Receptor (PR) Antagonism
The assay for PR antagonism takes advantage of the extensively reported modulation of alkaline phosphatase (AP) expression in human breast T47D mammary carcinoma cells {Beck et al., D. P. (1993). The progesterone antagonist RU486 acquires agonist activity upon stimulation of cAMP signalling pathways. Proc Natl Acad Sci USA 90, 4441-4445; Fensome et al. (2002). New progesterone receptor antagonists: 3,3-disubstituted-5-aryloxindoles. Bioorg Med Chem Left 12, 3487-3490; Zhang et al., (2002a). 6-Aryl-1,4-dihydro-benzo d 1,3 oxazin-2-ones: a novel class of potent, selective, and orally active nonsteroidal progesterone receptor antagonists. Journal of Medicinal Chemistry 45, 4379-4382; Zhang et al., (2003). Novel 6-aryl-1,4-dihydrobenzo d oxazine-2-thiones as potent, selective, and orally active nonsteroidal progesterone receptor agonists. Bioorganic & Medicinal Chemistry Letters 13, 1313-1316; Zhang et al., (2002b). Potent nonsteroidal progesterone receptor agonists: synthesis and SAR study of 6-aryl benzoxazines. Bioorganic & Medicinal Chemistry Letters 12, 787-790; Zhang, Z. et al., (2000). In vitro characterization of trimegestone: a new potent and selective progestin. Steroids 65, 637-643.}. […] In the absence of progesterone any agonist activity is also observed as an induction of AP activity. By running the assay in two formats (+/−progesterone (P4)), compounds behaving as PR antagonists, agonists or partials can be identified.
The materials required to grow T47D cells and perform the progesterone-induced AP assay are outlined in Table 1.
Briefly, T47D cells are grown by propagating in DMEM+10% FBS+2 mM Glutamax at 37° C./5% CO2. At 80-90% confluence, the media is exchanged for phenol red free DMEM+5% CS-FCS (Assay media) and cultured for a further 24 hrs at 37° C./5% CO2. T47D cells are then plated at 2.5×10^4 cells/well in 100 μL assay media in sufficient 96 well plates for the assay, in triplicates of each condition. For example, for a 5 point IC50 curve on one compound, this is equivalent to 36 wells (2×18 wells, ±P4). These plates are then cultured for 24 hrs at 37° C./5% CO2, leaving the outside wells blank by the addition of 200 μL PBS.
A 10 mM stock solution of compounds is prepared in DMSO (stored −20° C. in 10 µL aliquots). A 10 mM DMSO stock of RU486 is used as a standard pure PR antagonist. The compounds under investigation are added to assay medium, or a mixture of 0.05% pluronic acid in PBS, ±10 nM P4 to give a final concentration of 20 µM (i.e. 10 µL of the 10 mM stock to […] assay medium ±10 nM P4). The samples are mixed thoroughly and serial dilutions of compounds from 10 µM to 0.1 nM in a 96 well plate, are prepared as follows:
The outside wells are left blank. Assay medium (225 μL) is added to one half of the plate (−P4), rows 3-8, and to the other half of the plate, assay medium +10 nM P4. To row 2, 250 μL of the top concentration of compound (20 μM±10 nM P4) is added. 25 μL of the […] stock from row 2 is removed and added to the 225 μL of assay medium ±10 nM P4 in row 3 and thoroughly mixed. This process is repeated down the plate to row 7 to achieve serial dilutions. The vehicle control is adjusted to contain 0.1% DMSO (i.e. 20 μL to 10 mL assay medium ±10 nM P4 to give a concentration of 0.2% DMSO, add 250 μL to row 8).
100 μL of reagent from the dilution plates are transferred into the corresponding wells containing T47D cells in 100 μL assay medium, to give a final concentration of 10 μM to 0.1 nM compound (5 nM P4 antagonist format). The cells for 20 hrs at 37° C./5% CO2., then media is removed, cells washed with PBS (200 μL) and lysed by placing the cells at −80° C. for 15 min and thawing at room temp. The Freeze-thaw lysis is repeated, then PBS (50 μL) is added to each well. […]

Structure (SMILES) | pIC50
CCc1nn(CC#N)c(CC)c1Oc1cc(C)c(C#N)c(C)c1 [Example 87, 4-{[1-(Cyanomethyl)-3,5-diethyl-1H-pyrazol-4-yl]oxy}-2,6-dimethylbenzonitrile] | 8.30
Cc1cc(Oc2c(C3CC3)nn(Cc3cncnc3)c2C2CC2)cc(C)c1C#N [Example 126, 4-({3,5-Dicyclopropyl-1-[(pyrimidin-5-yl)methyl]-1H-pyrazol-4-yl}oxy)-2,6-dimethylbenzonitrile] | 8.52
CNC(=O)Cn1nc(C2CC2)c(Oc2cc(C)c(C#N)c(C)c2)c1C [Example 71, 2-[4-(4-Cyano-3,5-dimethyl-phenoxy)-3-cyclopropyl-5-methyl-1H-pyrazol-1-yl]-N-methyl-acetamide] | 8.40
CNC(=O)Cn1nc(C2CC2)c(Oc2cc(C)c(C#N)c(C)c2)c1C1CC1 [Example 65, 2-[4-(4-Cyano-3,5-dimethylphenoxy)-3,5-dicyclopropyl-1H-pyrazol-1-yl]-N-methyl-acetamide] | 8.52

Results, then the compound that gave them:

pIC50 | Structure (SMILES)
8.05 | Cc1cc(Oc2c(C3CC3)n[nH]c2C2CC2)cc(C)c1C#N [Example 4, 4-[(3,5-Dicyclopropyl-1H-pyrazol-4-yl)oxy]-2,6-dimethylbenzonitrile]
8.22 | CCCn1nc(CC)c(Oc2ccc(C#N)cc2)c1CC [Example 146, 4-[(3,5-Diethyl-1-propyl-1H-pyrazol-4-yl)oxy]benzonitrile]
